In US10703764B2, “Benzopiperazine compositions as BET bromodomain inhibitors” (FORMA Therapeutics, Inc., priority 2013, dated 2020):
pIC50: −log10 of the molar value.

Tests used:
MV4-11 cells = assay: Oncology cell growth assay (3-day proliferation, CellTiter-Glo); assay type: cell-based; details: Homo sapiens, MV4-11, 72 h, AML cell line MV4-11, 72 hours, compounds grouped by IC50 range, read-out: MV4-11 IC50 (inhibition of proliferation, gIC50)
Procedure, shortened: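 Compounds were serially diluted 3-fold in DMSO, giving final well concentrations from 10 down to 0.0045 μM. MV4-11 cells were then seeded at 3000 cells/well in RPMI 1640 with 10% FBS and incubated 72 hours. CellTiter-Glo signal was measured and gIC50 obtained by four-parameter logistic regression.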

BRD4 BD1 = molecular target: T1, BRD4 BD1 (Homo sapiens, UniProt O60885); assay: AlphaScreen binding assay, BRD4 Bromodomain 1
T1 construct: made in house
Procedure, shortened: (§1)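 Compound dilution series were mixed with His-tagged BRD4 bromodomain and biotinylated tetra-acetylated H4 (1-21) peptide at pH 7.3 (BD1 and peptide at 50 nM, BD2 and peptide at 100 nM). Donor and acceptor beads were then added, and plates were equilibrated at least 1 h before reading. IC50 values were fitted with a four-parameter logistic model.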

BRD4 BD2 = molecular target: T2, BRD4 BD2 (Homo sapiens, UniProt O60885); assay: AlphaScreen binding assay, BRD4 Bromodomain 2
T2 construct: made in house
Procedure, shortened: as §1

Row | pIC50 (MV4-11 cells) | pIC50 (BRD4 BD1) | pIC50 (BRD4 BD2) | SMILES
1 | < 6.30 | < 5.00 | 6.30 to 7.30 | CC(=O)N1c2ccc(-c3cnn(C4COC4)c3)cc2N(C(=O)C2(C)CC2)C[C@@H]1C [Example I-114, (S)-1-(2-methyl-4-(1-methylcyclopropanecarbonyl)-6-(1-(oxetan-3-yl)-1H-pyrazol-4-yl)-3,4-dihydroquinoxalin-1(2H)-yl)ethanone]
2 | 6.30 to 7.00 | 6.00 to 7.00 | 6.30 to 7.30 | CC(=O)N1c2ccc(-c3cnn(Cc4cnccn4)c3)cc2N(C(=O)OC(C)C)C[C@@H]1C [Example I-116, (S)-isopropyl 4-acetyl-3-methyl-7-(1-(pyrazin-2-ylmethyl)-1H-pyrazol-4-yl)-3,4-dihydroquinoxaline-1(2H)-carboxylate]
3 | 6.30 to 7.00 | 6.00 to 7.00 | 6.30 to 7.30 | CC(=O)N1c2ccc(-c3cnn(Cc4ccncc4)c3)cc2N(C(=O)OC(C)C)C[C@@H]1C [Example I-117, (S)-isopropyl 4-acetyl-3-methyl-7-(1-(pyridin-4-ylmethyl)-1H-pyrazol-4-yl)-3,4-dihydroquinoxaline-1(2H)-carboxylate]
4 | 6.30 to 7.00 | 6.00 to 7.00 | > 7.30 | CC(=O)N1c2ccc(-c3cnn(Cc4cccnc4)c3)cc2N(C(=O)OC(C)C)C[C@@H]1C [Example I-119, (S)-isopropyl 4-acetyl-3-methyl-7-(1-(pyridin-3-ylmethyl)-1H-pyrazol-4-yl)-3,4-dihydroquinoxaline-1(2H)-carboxylate]
5 | 6.30 to 7.00 | 6.00 to 7.00 | > 7.30 | CC(=O)N1c2ccc(-c3cnn(Cc4ccccn4)c3)cc2N(C(=O)OC(C)C)C[C@@H]1C [Example I-120, (S)-isopropyl 4-acetyl-3-methyl-7-(1-(pyridin-2-ylmethyl)-1H-pyrazol-4-yl)-3,4-dihydroquinoxaline-1(2H)-carboxylate]
6 | 6.30 to 7.00 | 6.00 to 7.00 | > 7.30 | CC(=O)N1c2ccc(-c3cnn(Cc4ccccn4)c3)cc2N(C(=O)C2CC2)C[C@@H]1C [Example I-121, (S)-1-(4-(cyclopropanecarbonyl)-2-methyl-6-(1-(pyridin-2-ylmethyl)-1H-pyrazol-4-yl)-3,4-dihydroquinoxalin-1(2H)-yl)ethanone]
7 | 6.30 to 7.00 | 6.00 to 7.00 | > 7.30 | CC(=O)N1c2ccc(-c3cnn(Cc4cccnc4)c3)cc2N(C(=O)C2CC2)C[C@@H]1C [Example I-122, (S)-1-(4-(cyclopropanecarbonyl)-2-methyl-6-(1-(pyridin-3-ylmethyl)-1H-pyrazol-4-yl)-3,4-dihydroquinoxalin-1(2H)-yl)ethan-1-one]
8 | < 6.30 | 5.00 to 6.00 | 6.30 to 7.30 | CC(=O)N1c2ccc(-c3cnn(Cc4cnccn4)c3)cc2N(C(=O)C2CC2)C[C@@H]1C [Example I-123, (S)-1-(4-(cyclopropanecarbonyl)-2-methyl-6-(1-(pyrazin-2-ylmethyl)-1H-pyrazol-4-yl)-3,4-dihydroquinoxalin-1(2H)-yl)ethanone]
9 | 6.30 to 7.00 | 5.00 to 6.00 | > 7.30 | CC(=O)N1c2ccc(-c3cnn(CC4(C)COC4)c3)cc2N(C(=O)C2CC2)C[C@@H]1C [Example I-124, (S)-1-(4-(cyclopropanecarbonyl)-2-methyl-6-(1-((3-methyloxetan-3-yl)methyl)-1H-pyrazol-4-yl)-3,4-dihydroquinoxalin-1(2H)-yl)ethanone]
10 | < 6.30 | 5.00 to 6.00 | > 7.30 | CC(=O)N1c2ccc(-c3cnn(Cc4ncccn4)c3)cc2N(C(=O)C2CC2)C[C@@H]1C [Example I-126, (S)-1-(4-(cyclopropanecarbonyl)-2-methyl-6-(1-(pyrimidin-2-ylmethyl)-1H-pyrazol-4-yl)-3,4-dihydroquinoxalin-1(2H)-yl)ethanone]
11 | < 6.30 | 6.00 to 7.00 | > 7.30 | CC(=O)N1c2ccc(-c3cnn(Cc4c[nH]cn4)c3)cc2N(C(=O)C2CC2)C[C@@H]1C [Example I-127, (S)-1-(6-(1-((1H-imidazol-4-yl)methyl)-1H-pyrazol-4-yl)-4-(cyclopropanecarbonyl)-2-methyl-3,4-dihydroquinoxalin-1(2H)-yl)ethanone]
12 | 6.30 to 7.00 | 5.00 to 6.00 | > 7.30 | CC(=O)N1c2ccc(-c3cnn(Cc4cncnc4)c3)cc2N(C(=O)C2CC2)C[C@@H]1C [Example I-128, (S)-1-(4-(cyclopropanecarbonyl)-2-methyl-6-(1-(pyrimidin-5-ylmethyl)-1H-pyrazol-4-yl)-3,4-dihydroquinoxalin-1(2H)-yl)ethanone]
13 | 6.30 to 7.00 | 5.00 to 6.00 | 6.30 to 7.30 | CC(=O)N1c2ccc(-c3cnn(CCN(C)C)c3)cc2N(C(=O)OC(C)C)C[C@@H]1C [Example I-129, (S)-isopropyl 4-acetyl-7-(1-(2-(dimethylamino)ethyl)-1H-pyrazol-4-yl)-3-methyl-3,4-dihydroquinoxaline-1(2H)-carboxylate]
14 | < 6.30 | 6.00 to 7.00 | 6.30 to 7.30 | CC(=O)N1c2ccc(-c3cnn(CC(=O)O)c3)cc2N(C(=O)OC(C)C)C[C@@H]1C [Example I-130, (S)-2-(4-(1-acetyl-4-(isopropoxycarbonyl)-2-methyl-1,2,3,4-tetrahydroquinoxalin-6-yl)-1H-pyrazol-1-yl)acetic acid]
15 | 6.30 to 7.00 | 6.00 to 7.00 | 6.30 to 7.30 | CC(=O)N1c2ccc(-c3cnn(Cc4ccno4)c3)cc2N(C(=O)OC(C)C)C[C@@H]1C [Example I-131, (S)-isopropyl 4-acetyl-7-(1-(isoxazol-5-ylmethyl)-1H-pyrazol-4-yl)-3-methyl-3,4-dihydroquinoxaline-1(2H)-carboxylate]
16 | 6.30 to 7.00 | 6.00 to 7.00 | 6.30 to 7.30 | CC(=O)N1c2ccc(-c3cnn(CC4(F)COC4)c3)cc2N(C(=O)OC(C)C)C[C@@H]1C [Example I-133, (S)-isopropyl 4-acetyl-7-(1-((3-fluorooxetan-3-yl)methyl)-1H-pyrazol-4-yl)-3-methyl-3,4-dihydroquinoxaline-1(2H)-carboxylate]
17 | < 6.30 | 6.00 to 7.00 | 6.30 to 7.30 | CNC(=O)Cn1cc(-c2ccc3c(c2)N(C(=O)OC(C)C)C[C@H](C)N3C(C)=O)cn1 [Example I-134, (S)-isopropyl 4-acetyl-3-methyl-7-(1-(2-(methylamino)-2-oxoethyl)-1H-pyrazol-4-yl)-3,4-dihydroquinoxaline-1(2H)-carboxylate]
18 | 6.30 to 7.00 | 6.00 to 7.00 | 6.30 to 7.30 | CC(=O)N1c2ccc(-c3cnn(CC(F)F)c3)cc2N(C(=O)OC(C)C)C[C@@H]1C [Example I-135, (S)-isopropyl 4-acetyl-7-(1-(2,2-difluoroethyl)-1H-pyrazol-4-yl)-3-methyl-3,4-dihydroquinoxaline-1(2H)-carboxylate]
19 | 6.30 to 7.00 | 6.00 to 7.00 | 6.30 to 7.30 | CC(=O)N1c2ccc(-c3cnn(CCCO)c3)cc2N(C(=O)OC(C)C)C[C@@H]1C [Example I-137, (S)-isopropyl 4-acetyl-7-(1-(3-hydroxypropyl)-1H-pyrazol-4-yl)-3-methyl-3,4-dihydroquinoxaline-1(2H)-carboxylate]
20 | 6.30 to 7.00 | 6.00 to 7.00 | > 7.30 | CC(=O)N1c2ccc(-c3cnn(CCn4cncn4)c3)cc2N(C(=O)OC(C)C)C[C@@H]1C [Example I-139, (S)-isopropyl 7-(1-(2-(1H-1,2,4-triazol-1-yl)ethyl)-1H-pyrazol-4-yl)-4-acetyl-3-methyl-3,4-dihydroquinoxaline-1 (2H)-carboxylate]
21 | 6.30 to 7.00 | 6.00 to 7.00 | 6.30 to 7.30 | CC(=O)N1c2ccc(-c3cnn(CC(C)(C)F)c3)cc2N(C(=O)OC(C)C)C[C@@H]1C [Example I-140, (S)-isopropyl 4-acetyl-7-(1-(2-fluoro-2-methylpropyl)-1H-pyrazol-4-yl)-3-methyl-3,4-dihydroquinoxaline-1(2H)-carboxylate]
22 | 6.30 to 7.00 | 6.00 to 7.00 | > 7.30 | CC(=O)N1c2ccc(-c3cnn(Cc4cc(C)no4)c3)cc2N(C(=O)OC(C)C)C[C@@H]1C [Example I-141, (S)-isopropyl 4-acetyl-3-methyl-7-(1-((3-methylisoxazol-5-yl)methyl)-1H-pyrazol-4-yl)-3,4-dihydroquinoxaline-1(2H)-carboxylate]
23 | 6.30 to 7.00 | 6.00 to 7.00 | 6.30 to 7.30 | CC(=O)N1c2ccc(-c3cnn(Cc4cncs4)c3)cc2N(C(=O)OC(C)C)C[C@@H]1C [Example I-143, (S)-isopropyl 4-acetyl-3-methyl-7-(1-(thiazol-5-ylmethyl)-1H-pyrazol-4-yl)-3,4-dihydroquinoxaline-1(2H)-carboxylate]
24 | 6.30 to 7.00 | > 7.00 | > 7.30 | CC(=O)N1c2ccc(-c3cnn(C4COC4)c3)cc2N(C(=O)OC(C)C)C[C@@H]1C [Example I-144, (S)-isopropyl 4-acetyl-3-methyl-7-(1-(oxetan-3-yl)-1H-pyrazol-4-yl)-3,4-dihydroquinoxaline-1(2H)-carboxylate]
25 | < 6.30 | 6.00 to 7.00 | 6.30 to 7.30 | CC(=O)N1c2ccc(-c3cnn(CC(C)(C)F)c3)cc2N(C(=O)C2CC2)C[C@@H]1C [Example I-145, (S)-1-(4-(cyclopropanecarbonyl)-6-(1-(2-fluoro-2-methylpropyl)-1H-pyrazol-4-yl)-2-methyl-3,4-dihydroquinoxalin-1 (2H)-yl)ethanone]
